Measurements: paper PMC4494771, “Synthesis, structure, and biological activity of novel heterocyclic sulfonyl-carboximidamides” (Monatshefte Fur Chemie, 2013)
Converted amounts (≈) assume the structure as drawn.

system: M. tuberculosis sp. 210; experiment: Tuberculostatic activity, classical test-tube method of successive dilution; format: cell-based; conditions: Mycobacterium tuberculosis; sp. 210, wild strain resistant to PAS, INH, ETB, RFP

SMILES | MIC [µg/mL]
NC(=NS(=O)(=O)c1cnccc1Cl)c1cnccn1 [Compound 10, N′-[(4-Chloropyridin-3-yl)sulfonyl]pyrazine-2-carboximidamide] | 50 (≈ 168 µM)
NC(=NS(=O)(=O)c1ccccc1Cl)c1ncccn1 [Compound 7, N′-[(2-Chlorophenyl)sulfonyl]pyrimidine-2-carboximidamide] | 50 (≈ 168 µM)
NC(=NS(=O)(=O)c1cnccc1Cl)c1ncccn1 [Compound 8, N′-[(4-Chloropyridin-3-yl)sulfonyl]pyrimidine-2-carboximidamide] | 50 (≈ 168 µM)
NNC(=O)c1ccncc1 [INH, isoniazid, reference compound] | 1.1 (≈ 8.02 µM)
NC(=NS(=O)(=O)c1cnccc1Cl)c1ccccn1 [Compound 2, N′-[(4-Chloropyridin-3-yl)sulfonyl]-2-pyridinecarboximidamide] | 50 (≈ 168 µM)
